The record followed here is ChEMBL document CHEMBL4673226, “Development of 5-Aminopyrazole-4-carboxamide-based Bumped-Kinase Inhibitors for Cryptosporidiosis Therapy” (J Med Chem, 2019).

Structures are written as SMILES. ≈ marks a conversion by molar mass, not a printed value. Calls of active or inactive are those of the source. No cut-off for these calls is given here. A value given as a limit tells only on which side of the number the result lay.

Data set [1] concerns HepG2. The data set can be described thus: Toxicity in human HepG2 cells. The format is cell-based.
A short description of data set [2]: Toxicity in human CRL-8155 cells. In kind it is cell-based.
For data set [3], the target named is Proto-oncogene tyrosine-protein kinase Src (Homo sapiens, UniProt P12931). Kind of data set: Inhibition of SRC (unknown origin). The format is ADME.
Data set [4] is described as follows: Clearance in mouse at 25 mg/kg, po. The format is ADME, organism-based. The following applies: in vivo.
A short description of data set [5]: Solubility in pH 2.0 solution. The settings on record: buffer.
A short description of data set [6]: Drug level in mouse fecus at 25 mg/kg, po. The settings on record: read-out: Drug uptake, in vivo.
A short description of data set [7]: Inhibition of Cryptosporidium parvum CDPK1 assessed as reduction in ATP consumption using BioSyntide-2 substrate incubated for 90 mins by luciferase reporter gene assay.
A short description of data set [8]: AUC in mouse at 25 mg/kg, po. In kind it is ADME, organism-based. Further details: dose 25 mg/kg. The following applies: in vivo.
Data set [9] in a line: Solubility in pH 6.5 solution. The settings on record: buffer.
A short description of data set [10]: Protein binding in human plasma by dialysis method.
The nature of data set [11]: Clearance in mouse at 10 mg/kg, po. In kind it is ADME, organism-based. The following applies: in vivo.
The test system of data set [12] is Cryptosporidium parvum. The data set can be described thus: Antimicrobial activity against nano-luciferase-expressing Cryptosporidium parvum infected in IFN-gamma KO B6.129S7-Ifngtm1Ts/J mouse assessed as log reduction of infection at 60 mg/kg, po QD for 5 days beginning on day 6 post infection relative untreated control. The following applies: time 5 day.
Data set [13] in a line: Protein binding in mouse plasma by dialysis method.
Data set [14] in a line: AUC in mouse at 10 mg/kg, po. The format is ADME, organism-based. On the set-up: dose 10 mg/kg. The settings on record: in vivo.
Data set [15] has as its system Cryptosporidium parvum. The data set can be described thus: Antimicrobial activity against nano-luciferase-expressing Cryptosporidium parvum infected in IFN-gamma KO B6.129S7-Ifngtm1Ts/J mouse assessed as log reduction of infection at 30 mg/kg, po BID for 5 days beginning on day 6 post infection relative untreated control. The format is functional, organism-based. The following applies: time 5.0 day.

Broadly, the IC50 is the concentration that inhibits the measured activity by half. In general, CL/F refers to clearance divided by bioavailability, as obtained after extravascular dosing. Usually solubility stands for how much of the substance goes into solution per volume. A word on the AUC: it is the area under the concentration-time curve, a measure of exposure. Read a high AUC as more exposure.

Proto-oncogene tyrosine-protein kinase Src, sequence (P12931 2-536 limits assumed): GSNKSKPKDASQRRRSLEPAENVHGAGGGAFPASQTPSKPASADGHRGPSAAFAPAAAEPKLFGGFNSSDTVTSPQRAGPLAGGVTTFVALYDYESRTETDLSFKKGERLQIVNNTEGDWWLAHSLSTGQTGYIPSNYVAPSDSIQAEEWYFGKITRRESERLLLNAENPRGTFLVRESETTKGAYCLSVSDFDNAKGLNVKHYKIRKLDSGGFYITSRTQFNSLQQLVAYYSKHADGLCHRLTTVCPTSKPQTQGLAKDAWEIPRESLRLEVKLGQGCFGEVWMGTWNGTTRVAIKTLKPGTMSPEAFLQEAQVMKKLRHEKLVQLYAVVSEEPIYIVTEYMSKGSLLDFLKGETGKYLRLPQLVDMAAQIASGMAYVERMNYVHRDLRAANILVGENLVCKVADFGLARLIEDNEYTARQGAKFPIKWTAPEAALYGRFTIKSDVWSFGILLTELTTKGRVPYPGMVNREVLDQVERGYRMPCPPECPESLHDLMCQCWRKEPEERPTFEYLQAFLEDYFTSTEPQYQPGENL

`CCOc1ccc2cc(-c3nn(C(C)(C)CCO)c(N)c3C(N)=O)ccc2n1`: the Activity result in [1] and in [2] was “Non-Toxic” each time.

Take `CCOc1ccc2cc(-c3nn(C(C)CCO)c(N)c3C(N)=O)ccc2n1` (stereo not drawn): the Activity result in data set [1] and in data set [2] was “Non-Toxic” throughout.

Turning to `CC(C)(CO)Cn1nc(-c2ccc3nc(OC4CC4)ccc3c2)c(C(N)=O)c1N`, the Activity entry in [1] and in data set [2] was “Non-Toxic” each time.

Consider `CCOc1ccc2cc(-c3nn(C(C)(C)CO)c(N)c3C(N)=O)cnc2c1`, for which the IC50 is 4.7 µM in data set [3] and 4.1 nM in data set [7]. In addition, in [4], the CL/F is 1 mL/min. Further, the Activity entry in data set [1] and in data set [2] was “Non-Toxic” each time. The solubility in [5] and in data set [9] was greater than 50 µM each time. In addition, in [6], the concentration amounted to 2.9 µM. Also, in [8], the exposure (AUC) was found to be 50798.1 µmol·min/L.

The molecule `CCOc1ccc2cc(-c3nn(CC(C)(C)CO)c(N)c3C(N)=O)cnc2c1` registered an IC50 in data set [3] greater than 10 µM. The Activity entry in data set [1] and in [2] was “Non-Toxic” in each case. The same molecule registered a solubility in data set [9] greater than 100 µM.

`CC(C)(CCO)n1nc(-c2ccc3nc(OC4CC4)ccc3c2)c(C(N)=O)c1N`: the figures for the IC50 in [3] and in [7] were greater than 10 µM and 2.3 nM, respectively. In [4], this molecule had a CL/F of 6.7 mL/min. Also, the Activity entry in data set [1] and in data set [2] was “Non-Toxic” in each case. In addition, the solubility is 96 µM (≈ 38 µg/mL) in data set [5] and greater than 100 µM in data set [9]. The molecule further had an AUC in data set [8] of 193.6 µmol·min/L.

For `CCOc1ccc2cc(-c3nn(C(C)CCO)c(N)c3C(N)=O)cnc2c1` (stereo not drawn), the PPB is given as 84% in data set [10] and 86% in data set [13]. This molecule also registered an IC50 in [3] of 3.5 µM. Moreover, the Activity entry in [1] and in data set [2] was “Non-Toxic” throughout. The results for the solubility in data set [5] and in data set [9] were 78 µM (≈ 28.8 µg/mL) and greater than 100 µM, respectively. The molecule further returned a CL/F in [11] of 1.9 mL/min. Also, in data set [12], the FC was 3.41. For the same molecule, the concentration in data set [6] was 1.1 µM. The AUC in data set [14] turned out to be 339 µmol·min/L.

On to `CC(CCO)n1nc(-c2ccc3cc(OC4CC4)ccc3c2)c(C(N)=O)c1N` (stereo not drawn), for which the PPB in data set [10] and in data set [13] was 95% in each case. The figures for the IC50 in data set [3] and in data set [7] were greater than 10 µM and 6 nM, respectively. In [4], this molecule displayed a CL/F of 0.3 mL/min. In addition, the Activity entry in data set [1] and in data set [2] was “Non-Toxic” each time. Further, the solubility in data set [5] and in [9] was greater than 100 µM each time. Moreover, in [12], the FC amounted to 4.78. Moreover, the concentration in [6] was 10.3 µM. The molecule further displayed an AUC in data set [8] of 4332.8 µmol·min/L.

Regarding `CC(C)(CO)n1nc(-c2ccc3nc(OC4CC4)ccc3c2)c(C(N)=O)c1N`, the Activity result in data set [1] and in [2] was “Non-Toxic” throughout.

With `CC(C)(CO)n1nc(-c2cnc3cc(OC4CC4)ccc3c2)c(C(N)=O)c1N`, the IC50 was greater than 10 µM in [3] and 1.9 nM in data set [7]. The Activity result in [1] and in [2] was “Non-Toxic” each time. In addition, the solubility turned out to be 89 µM (≈ 33.9 µg/mL) in data set [5] and 44.2 µM (≈ 16.9 µg/mL) in data set [9].

With `CC(C)(CO)n1nc(-c2ccc3cc(OC4CC4)ccc3c2)c(C(N)=O)c1N`, the figures for the IC50 in data set [3] and in data set [7] were greater than 10 µM and 6.9 nM, respectively. In data set [4], this molecule came in with a CL/F of 0.3 mL/min. Moreover, the Activity entry in [1] and in data set [2] was “Non-Toxic” throughout. For the same molecule, the solubility in [5] was 89 µM (≈ 33.9 µg/mL); in data set [9] it was 92.9 µM (≈ 35.3 µg/mL). Further, the FC in [12] worked out at 4.47. Further, the concentration in data set [6] was determined as 3.5 µM. In addition, the PPB in [13] was 80%. The same molecule gave an AUC in data set [8] of 41782 µmol·min/L.

For the molecule `CCOc1ccc2cc(-c3nn(C(C)CCO)c(N)c3C(N)=O)ccc2c1` (stereo not drawn), the PPB in data set [10] amounted to 88%; in [13], 71%. Further, the values for the IC50 in data set [3] and in data set [7] were 10 µM and 2 nM, respectively. The molecule also gave a CL/F in data set [4] of 0.8 mL/min. Further, the Activity entry in data set [1] and in data set [2] was “Non-Toxic” in each case. Besides, the solubility was greater than 100 µM in [5] and 56.7 µM (≈ 20.9 µg/mL) in data set [9]. The FC in data set [12] is given as 2.62. Further, the AUC in data set [8] amounted to 1738 µmol·min/L. Also, the result in data set [15] was Active.

In the case of `CCOc1ccc2cc(-c3nn(C(C)(C)CCO)c(N)c3C(N)=O)cnc2c1`, the IC50 in data set [3] came out at 2.5 µM; in data set [7] it was 5.7 nM. Moreover, the Activity result in data set [1] and in data set [2] was “Non-Toxic” in each case. The solubility is 87.9 µM (≈ 33.7 µg/mL) in data set [5] and greater than 100 µM in data set [9].

Take `CCOc1ccc2cc(-c3nn(CC(C)(C)CO)c(N)c3C(N)=O)ccc2c1`: the PPB in data set [10] was found to be 94%; in data set [13] it was 92%. Besides, the IC50 in data set [3] came out at 6.3 µM; in data set [7], 6.6 nM. Also, the CL/F in [4] was 2.1 mL/min. Further, the Activity result in data set [1] and in [2] was “Non-Toxic” in each case. For the same molecule, the solubility is greater than 100 µM in data set [5] and 20.6 µM (≈ 7.88 µg/mL) in data set [9]. The FC in [12] is -0.03. For the same molecule, the concentration in [6] was 7.6 µM. Also, the AUC in data set [8] amounted to 621.1 µmol·min/L.

Take `C#CCOc1ccc2cc(-c3nn(C(C)(C)C)c(N)c3C(N)=O)ccc2c1`: the Activity result in data set [1] and in data set [2] was “Non-Toxic” throughout.

As to `CC(C)(CCO)n1nc(-c2cnc3cc(OC4CC4)ccc3c2)c(C(N)=O)c1N`, the IC50 in [3] is greater than 10 µM; in data set [7], 3 nM. The Activity result in data set [1] and in data set [2] was “Non-Toxic” each time. The molecule further yielded a solubility in [5] of 88.8 µM (≈ 35.1 µg/mL).

Regarding `CCOc1ccc2cc(-c3nn(CC(C)(C)CO)c(N)c3C(N)=O)ccc2n1`, the Activity entry in data set [1] and in [2] was “Non-Toxic” in each case. Moreover, the CL/F in [11] stood at 5.1 mL/min. The molecule also returned an exposure (AUC) in [14] of 140.2 µmol·min/L.

In the case of `CC(C)(CCO)n1nc(-c2ccc3cc(OC4CC4)ccc3c2)c(C(N)=O)c1N`, the IC50 in data set [3] is greater than 10 µM; in data set [7] it was 3.8 nM. This molecule also gave a CL/F in data set [4] of 1 mL/min. In addition, the Activity result in [1] and in data set [2] was “Non-Toxic” throughout. This molecule yielded a solubility in data set [5] greater than 100 µM. Further, the AUC in data set [8] is 483.2 µmol·min/L.

For `CC(C)(CO)Cn1nc(-c2cnc3cc(OC4CC4)ccc3c2)c(C(N)=O)c1N`, the half-inhibitory concentration (IC50) is greater than 10 µM in [3] and 0.1 nM in [7]. In addition, the Activity entry in data set [1] and in [2] was “Non-Toxic” throughout. In addition, the solubility in data set [5] and in [9] was greater than 100 µM throughout.
